Assay results as given in US6191115A, “C-terminus modified heptapeptide LHRH analogs” (Abbott Laboratories, priority 1999, dated 2001).
Starred links: 1 amine or outer side, 2 acyl side, 3 side chain; linkers in the order of their positions; H or OH if unused. Non-standard residues stand in square brackets, D forms with d. Residues, ends and D or L forms follow the SMILES beside them. *: point of attachment. dPhe(4-Cl) = N[C@H](Cc1ccc(Cl)cc1)C(=O)O; NH(CH2)10NH = C(CCCCCN[*:2])CCCCN[*:1]; d2Nal = N[C@H](Cc1ccc2ccccc2c1)C(=O)O; NMeY = CN[C@@H](Cc1ccc(O)cc1)C(=O)O; NHCH2(2-pyridyl) = c1ccc(CN*)nc1; d3Pal = N[C@H](Cc1cccnc1)C(=O)O; NH(3-picolyl) = c1cncc(CN*)c1; NHPhenethyl = c1ccc(CCN*)cc1; Nicotinoyl = O=C(c1cccnc1)*; NH(CH2)8NH2 = NCCCCCCCCN*; NH(CH2)7NH2 = NCCCCCCCN*; NH(CH2)5NH2 = NCCCCCN*; NH(CH2)4NH2 = NCCCCN*; NHCH2CH2NHMe = CNCCN*; X13 = C(CN*)CN1CCOCC1; NH(CH2)3NH2 = NCCCN*; X11 = CC(C)NCCCCCN*; X7 = CN1CCCC1CCN*; X2 = N=C(N)NCCN*; X4 = CC(C)NCCN*; NHBu = CCCCN*

Molecular target: T1, LH release from rat pituitary cells (Rattus norvegicus, UniProt P30969)
T1 sequence (P30969 1-327): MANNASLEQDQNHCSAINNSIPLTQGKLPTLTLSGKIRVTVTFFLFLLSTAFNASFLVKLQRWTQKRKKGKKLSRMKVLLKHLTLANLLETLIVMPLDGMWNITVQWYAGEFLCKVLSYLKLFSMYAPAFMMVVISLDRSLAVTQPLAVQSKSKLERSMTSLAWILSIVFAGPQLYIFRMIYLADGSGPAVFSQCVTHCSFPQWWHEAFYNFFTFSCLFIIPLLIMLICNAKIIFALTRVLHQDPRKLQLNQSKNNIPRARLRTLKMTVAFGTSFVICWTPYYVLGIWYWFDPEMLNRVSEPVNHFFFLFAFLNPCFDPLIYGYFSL
Assay: in vitro inhibition of LH release from rat pituitary cells (pA2)
Type: cell-based
Details: pA2 = negative logarithm of antagonist concentration required to shift the response curve of the agonist leuprolide to two-fold higher concentration
Procedure: Representative compounds of the present invention were evaluated in vitro for inhibition of LH release from rat pituitary cells (pA2). Methods for the assay procedures arc described by F. Haviv, et al. J. Med. Chem., 32:2340-2344 (1989). Values of pA2 are the negative logarithms of the concentration of the particular antagonist test compound required to shift the response curve produced by the agonist leuprolide to two-fold higher concentration. Typically values of 7.0 or greater are indicative of good LHRH antagonist potency, with values of 8.0 or greater being preferred. Leuprolide LHRH agonist, disclosed and claimed in U.S. Pat. No. 4,005,063, has the structure 5-oxo-Pro^1 -His^2 -Trp^3 -Ser^4 -Tyr^5 -D-Leu^6 -Leu^7 -Arg^8 -Pro^9 -NHEt.

SMILES	LHRH antagonist potency (pA2)
CC(=O)N[C@H](Cc1ccc2ccccc2c1)C(=O)N[C@H](Cc1ccc(Cl)cc1)C(=O)N[C@H](Cc1cccnc1)C(=O)N[C@@H](CO)C(=O)N(C)[C@@H](Cc1ccc(O)cc1)C(=O)N[C@H](CCCCNC(=O)c1cccnc1)C(=O)N[C@@H](CC(C)C)C(=O)NCCCCCCCCCCN [Example 17, NAcD2Nal-D4ClPhe-D3Pal-Ser-NMeTyr-DLys(Nic)-Leu-NH--(CH2)10 NH2] (Ac-[d2Nal][dPhe(4-Cl)][d3Pal]S[NMeY][dK](Nicotinoyl)L-{NH(CH2)10NH})	7.63
CC(=O)N[C@H](Cc1ccc2ccccc2c1)C(=O)N[C@H](Cc1ccc(Cl)cc1)C(=O)N[C@H](Cc1cccnc1)C(=O)N[C@@H](CO)C(=O)N(C)[C@@H](Cc1ccc(O)cc1)C(=O)N[C@H](CCCCNC(=O)c1cccnc1)C(=O)N[C@@H](CC(C)C)C(=O)NCCCCCCCN [Example 10, NAcD2Nal-D4ClPhe-D3Pal-Ser-NMeTyr-DLys(Nic)-Leu-NH--(CH2)7 NH2] (Ac-[d2Nal][dPhe(4-Cl)][d3Pal]S[NMeY][dK](Nicotinoyl)L-{NH(CH2)7NH2})	8.76
CC(=O)N[C@H](Cc1ccc2ccccc2c1)C(=O)N[C@H](Cc1ccc(Cl)cc1)C(=O)N[C@H](Cc1cccnc1)C(=O)N[C@@H](CO)C(=O)N(C)[C@@H](Cc1ccc(O)cc1)C(=O)N[C@H](CCCCNC(=O)c1cccnc1)C(=O)N[C@@H](CC(C)C)C(=O)NCCCN [Example 15, NAcD2Nal-D4ClPhe-D3Pal-Ser-NMeTyr-DLys(Nic)-Leu-NH--(CH2)3 NH2] (Ac-[d2Nal][dPhe(4-Cl)][d3Pal]S[NMeY][dK](Nicotinoyl)L-{NH(CH2)3NH2})	8.70
CC(=O)N[C@H](Cc1ccc2ccccc2c1)C(=O)N[C@H](Cc1ccc(Cl)cc1)C(=O)N[C@H](Cc1cccnc1)C(=O)N[C@@H](CO)C(=O)N(C)[C@@H](Cc1ccc(O)cc1)C(=O)N[C@H](CCCCNC(=O)c1cccnc1)C(=O)N[C@@H](CC(C)C)C(=O)NCCNC(C)C [Example 9, NAcD2Nal-D4ClPhe-D3Pal-Ser-NMeTyr-DLys(Nic)-Leu-NH--(CH2)2 NH-isopropyl] (Ac-[d2Nal][dPhe(4-Cl)][d3Pal]S[NMeY][dK](Nicotinoyl)L-X4)	10.21
CC(=O)N[C@H](Cc1ccc2ccccc2c1)C(=O)N[C@H](Cc1ccc(Cl)cc1)C(=O)N[C@H](Cc1cccnc1)C(=O)N[C@@H](CO)C(=O)N(C)[C@@H](Cc1ccc(O)cc1)C(=O)N[C@H](CCCCNC(=O)c1cccnc1)C(=O)N[C@@H](CC(C)C)C(=O)NCCCCCNC(C)C [Example 12, NAcD2Nal-D4ClPhe-D3Pal-Ser-NMeTyr-DLys(Nic)-1-Leu-NH--(CH2)5 NH-isopropyl] (Ac-[d2Nal][dPhe(4-Cl)][d3Pal]S[NMeY][dK](Nicotinoyl)L-X11)	10.45
CC(=O)N[C@H](Cc1ccc2ccccc2c1)C(=O)N[C@H](Cc1ccc(Cl)cc1)C(=O)N[C@H](Cc1cccnc1)C(=O)N[C@@H](CO)C(=O)N(C)[C@@H](Cc1ccc(O)cc1)C(=O)N[C@H](CCCCNC(=O)c1cccnc1)C(=O)N[C@@H](CC(C)C)C(=O)NCCNC(=N)N [Example 16, NAcD2Nal-D4ClPhe-D3Pal-Ser-NMeTyr-DLys(Nic)-Leu-NH--(CH2)2 NH(C=NH)NH2] (Ac-[d2Nal][dPhe(4-Cl)][d3Pal]S[NMeY][dK](Nicotinoyl)L-X2)	8.89
CNCCNC(=O)[C@H](CC(C)C)NC(=O)[C@@H](CCCCNC(=O)c1cccnc1)NC(=O)[C@H](Cc1ccc(O)cc1)N(C)C(=O)[C@H](CO)NC(=O)[C@@H](Cc1cccnc1)NC(=O)[C@@H](Cc1ccc(Cl)cc1)NC(=O)[C@@H](Cc1ccc2ccccc2c1)NC(C)=O [Example 19, NAcD2Nal-D4ClPhe-D3Pal-Ser-NMeTyr-DLys(Nic)-Leu-NH--(CH2)2 NHCH3] (Ac-[d2Nal][dPhe(4-Cl)][d3Pal]S[NMeY][dK](Nicotinoyl)L-NHCH2CH2NHMe)	9.70
CC(=O)N[C@H](Cc1ccc2ccccc2c1)C(=O)N[C@H](Cc1ccc(Cl)cc1)C(=O)N[C@H](Cc1cccnc1)C(=O)N[C@@H](CO)C(=O)N(C)[C@@H](Cc1ccc(O)cc1)C(=O)N[C@H](CCCCNC(=O)c1cccnc1)C(=O)N[C@@H](CC(C)C)C(=O)NCc1ccccn1 [Example 23, NAcD2Nal-D4ClPhe-D3Pal-Ser-NMeTyr-DLys(Nic)-Leu-NH--CH2 -(2-pyridine)] (Ac-[d2Nal][dPhe(4-Cl)][d3Pal]S[NMeY][dK](Nicotinoyl)L-{NHCH2(2-pyridyl)})	9.18
CC(=O)N[C@H](Cc1ccc2ccccc2c1)C(=O)N[C@H](Cc1ccc(Cl)cc1)C(=O)N[C@H](Cc1cccnc1)C(=O)N[C@@H](CO)C(=O)N(C)[C@@H](Cc1ccc(O)cc1)C(=O)N[C@H](CCCCNC(=O)c1cccnc1)C(=O)N[C@@H](CC(C)C)C(=O)NCc1cccnc1 [Example 24, NAcD2Nal-D4ClPhe-D3Pal-Ser-NMeTyr-DLys(Nic)-Leu-NH--CH2 -(3-pyridine)] (Ac-[d2Nal][dPhe(4-Cl)][d3Pal]S[NMeY][dK](Nicotinoyl)L-{NH(3-picolyl)})	8.30
CC(=O)N[C@H](Cc1ccc2ccccc2c1)C(=O)N[C@H](Cc1ccc(Cl)cc1)C(=O)N[C@H](Cc1cccnc1)C(=O)N[C@@H](CO)C(=O)N(C)[C@@H](Cc1ccc(O)cc1)C(=O)N[C@H](CCCCNC(=O)c1cccnc1)C(=O)N[C@@H](CC(C)C)C(=O)NCCCCCCCCN [Example 18, NAcD2Nal-D4ClPhe-D3Pal-Ser-NMeTyr-DLys(Nic)-Leu-NH--(CH2)8 NH2] (Ac-[d2Nal][dPhe(4-Cl)][d3Pal]S[NMeY][dK](Nicotinoyl)L-{NH(CH2)8NH2})	8.48
CC(=O)N[C@H](Cc1ccc2ccccc2c1)C(=O)N[C@H](Cc1ccc(Cl)cc1)C(=O)N[C@H](Cc1cccnc1)C(=O)N[C@@H](CO)C(=O)N(C)[C@@H](Cc1ccc(O)cc1)C(=O)N[C@H](CCCCNC(=O)c1cccnc1)C(=O)N[C@@H](CC(C)C)C(=O)NCCC1CCCN1C (stereo partly drawn) [Example 30, NAcD2Nal-D4ClPhe-D3Pal-Ser-NMeTyr-DLys(Nic)-Leu-NH--CH2 --CH2 -[2-(1-methyl)pyrrolidine]] (Ac-[d2Nal][dPhe(4-Cl)][d3Pal]S[NMeY][dK](Nicotinoyl)L-X7)	9.80
CCCCNC(=O)[C@H](CC(C)C)NC(=O)[C@@H](CCCCNC(=O)c1cccnc1)NC(=O)[C@H](Cc1ccc(O)cc1)N(C)C(=O)[C@H](CO)NC(=O)[C@@H](Cc1cccnc1)NC(=O)[C@@H](Cc1ccc(Cl)cc1)NC(=O)[C@@H](Cc1ccc2ccccc2c1)NC(C)=O [Example 1, NAcD2Nal-D4ClPhe-D3Pal-Ser-NMeTyr-DLys(Nic)-Leu-NH-nBu] (Ac-[d2Nal][dPhe(4-Cl)][d3Pal]S[NMeY][dK](Nicotinoyl)L-NHBu)	7.90
CC(=O)N[C@H](Cc1ccc2ccccc2c1)C(=O)N[C@H](Cc1ccc(Cl)cc1)C(=O)N[C@H](Cc1cccnc1)C(=O)N[C@@H](CO)C(=O)N(C)[C@@H](Cc1ccc(O)cc1)C(=O)N[C@H](CCCCNC(=O)c1cccnc1)C(=O)N[C@@H](CC(C)C)C(=O)NCCCCCN [Example 13, NAcD2Nal-D4ClPhe-D3Pal-Ser-NMeTyr-DLys(Nic)-Leu-NH--(CH2)5 NH2] (Ac-[d2Nal][dPhe(4-Cl)][d3Pal]S[NMeY][dK](Nicotinoyl)L-{NH(CH2)5NH2})	9.30
CC(=O)N[C@H](Cc1ccc2ccccc2c1)C(=O)N[C@H](Cc1ccc(Cl)cc1)C(=O)N[C@H](Cc1cccnc1)C(=O)N[C@@H](CO)C(=O)N(C)[C@@H](Cc1ccc(O)cc1)C(=O)N[C@H](CCCCNC(=O)c1cccnc1)C(=O)N[C@@H](CC(C)C)C(=O)NCCCN1CCOCC1 [Example 31, NAcD2Nal-D4ClPhe-D3Pal-Ser-NMeTyr-DLys(Nic)-Leu-NH--CH2 CH2 CH2 -(1-morpholine)] (Ac-[d2Nal][dPhe(4-Cl)][d3Pal]S[NMeY][dK](Nicotinoyl)L-X13)	9.30
CC(=O)N[C@H](Cc1ccc2ccccc2c1)C(=O)N[C@H](Cc1ccc(Cl)cc1)C(=O)N[C@H](Cc1cccnc1)C(=O)N[C@@H](CO)C(=O)N(C)[C@@H](Cc1ccc(O)cc1)C(=O)N[C@H](CCCCNC(=O)c1cccnc1)C(=O)N[C@@H](CC(C)C)C(=O)NCCCCN [Example 6, NAcD2Nal-D4ClPhe-D3Pal-Ser-NMeTyr-DLys(Nic)-Leu-NH--(CH2)4 NH2] (Ac-[d2Nal][dPhe(4-Cl)][d3Pal]S[NMeY][dK](Nicotinoyl)L-{NH(CH2)4NH2})	9.90
CC(=O)N[C@H](Cc1ccc2ccccc2c1)C(=O)N[C@H](Cc1ccc(Cl)cc1)C(=O)N[C@H](Cc1cccnc1)C(=O)N[C@@H](CO)C(=O)N(C)[C@@H](Cc1ccc(O)cc1)C(=O)N[C@H](CCCCNC(=O)c1cccnc1)C(=O)N[C@@H](CC(C)C)C(=O)NCCc1ccccc1 [Example 8, NAcD2Nal-D4ClPhe-D3Pal-Ser-NMeTyr-DLys(Nic)-Leu-NH--(CH2)2 -phenyl] (Ac-[d2Nal][dPhe(4-Cl)][d3Pal]S[NMeY][dK](Nicotinoyl)L-NHPhenethyl)	8.48
